{
  "source": "patent US11980616B2",
  "about": "“Treating liver disease by selectively eliminating senescent cells” (Buck Institute for Research on Aging, priority 2014, dated 2024)",
  "key": {"[1]": {"tested_on": "non-senescent IMR90 cells", "assay": "Cell counting assay, non-senescent IMR90", "type": "cell-based, human", "conditions": "3 μM, 24 hour exposure", "procedure": "(§1) To determine whether ABT-263 is selectively toxic to senescent cells compared to non-senescent cells, a cell counting assay was used to determine cell survival following treatment with ABT-263. […] Each condition was seeded in three wells and counted independently. Cells were counted after a 24 hour exposure to ABT-263 (or control culture)."}, "[2]": {"tested_on": "non-senescent HCA2 foreskin fibroblast cells", "assay": "CellTiter-Glo cell viability assay, non-senescent HCA2", "type": "cell-based", "conditions": "72 h; non-senescent HCA2, 3 days", "procedure": "(§2) To determine whether ABT-263 is selectively toxic to senescent cells compared to non-senescent cells, a cell viability assay was used to assess cell survival following treatment with ABT-263. IMR90 cells (human primary lung fibroblasts (IMR90) (IMR-90 (ATCC® CCL-186™, Manassas, Virginia) were seeded in six well plates, and cells were induced to senescence with 10 Gy of ionizing radiation (IR) (Day 0). The media was refreshed every 3 days. The senescent phenotype is allowed to develop for 7 days at which point a cell count was made to determine the baseline number of cells followed by seeding into 96-well plates. On day 8, the senescent cells (irradiated) and the non-senescent cells (the non-radiated cells), were exposed to serial dilutions of ABT-263 for a period of 3 days. ABT-263 concentrations ranged from 0.5 nM to 3 μM. Each condition was seeded in triplicate.\n(§3) After three days of treatment (Day 11), cells were assayed for cell survival using the commercially available CellTiter-Glo® (CTG) Luminescent Cell Viability Assay (Promega Corporation, Madison, Wisconsin). The assay determines the number of viable cells in culture based on the quantitation of ATP present which is an indicator of metabolically active cells.\n(§4) The methods of Example 7 were repeated in other cell strains. […]"}, "senescent IMR90 cells": {"tested_on": "senescent IMR90 cells", "assay": "CellTiter-Glo cell viability assay, senescent IMR90", "type": "cell-based, human", "procedure": "as §2, §3\nThe experiments performed for assessing the effect of these other Bcl-2 inhibitors were performed essentially as described in Example 7. Cells were exposed to ABT-199 at serial dilution concentrations ranging from 15 nM to 100 μM (FIGS. 26 and 27). Cells were exposed to Obatoclax at concentrations ranging from 1.4 nM to 9 μM (FIG. 28).\nIMR90 cells were induced to senescence by irradiation as described in Example 7. The irradiated IMR90 cells and non-senescent IMR90 cells were then exposed to a compound called ML214 that is a Bcl-2A1 specific inhibitor.\nThe effect of ABT-263 in combination with the Akt inhibitor MK-2206 was tested for selective toxicity of senescent cells compared to non-senescent cells in IMR90 cells. The methods of Example 7 were repeated except that cell cultures were exposed to 10 nM MK-2206 (Selleckem, Cat #S1078) in addition to serial dilutions of ABT-263."}, "[3]": {"tested_on": "senescent HCA2 foreskin fibroblast cells", "assay": "CellTiter-Glo cell viability assay, senescent HCA2", "type": "cell-based", "conditions": "72 h; senescent HCA2, 3 days", "procedure": "as §2, §3, §4"}, "[4]": {"tested_on": "senescent IMR90 cells (Sen(IR) IMR90)", "assay": "Cell counting assay, senescent IMR90", "type": "cell-based, human", "conditions": "3 μM, 24 hour exposure", "procedure": "as §1"}, "[5]": {"tested_on": "non-senescent IMR90 cells", "assay": "CellTiter-Glo cell viability assay, non-senescent IMR90", "type": "cell-based", "conditions": "Homo sapiens, IMR-90, 72 h; non-senescent IMR90, 3 days", "procedure": "as §2, §3\nThe experiments performed for assessing the effect of these other Bcl-2 inhibitors were performed essentially as described in Example 7. […]"}, "[6]": {"tested_on": "senescent IMR90 cells (IMR90 Sen(IR))", "assay": "Pan-caspase inhibitor (Q-VD-OPh) apoptosis assay in IMR90 cells", "type": "cell-based, human", "experimental": "Lung fibroblast cell line IMR90 (human primary lung fibroblasts, ATCC® CCL-186™, Manassas, Virginia) were seeded in six-well plates and induced to senesce with 10 Gy of ionizing radiation (IR) as described in Example 12. After senescence was established, cells were re-seeded into 96 well plates. […] At the end of the assay time period, cells were counted. Each condition was seeded in three plate wells and counted independently. […] Cell survival was determined using the commercially available CellTiter-Glo® Luminescent Cell Viability Assay (Promega Corporation, Madison, Wisconsin). The assay determines the number of viable cells in culture based on the quantitation of ATP present which is an indicator of metabolically active cells."}, "[7]": {"tested_on": "senescent Primary Renal Cortical Cells", "assay": "CellTiter-Glo cell viability assay, senescent renal epithelial cells", "type": "cell-based", "conditions": "72 h, 3 days", "procedure": "as §2, §3, §4"}, "[8]": {"tested_on": "non-senescent Primary Renal Cortical Cells", "assay": "CellTiter-Glo cell viability assay, non-senescent renal epithelial cells", "type": "cell-based", "conditions": "72 h, 3 days", "procedure": "as §2, §3, §4"}, "[9]": {"tested_on": "3MR or INK-ATTAC mice exposed to cigarette smoke", "assay": "Chronic cigarette smoke exposure model (COPD)", "type": "in vivo, mouse", "conditions": "after 2 months of cigarette smoke exposure; vs untreated controls", "procedure": "In a second animal model for pulmonary diseases (e.g., COPD), mice were exposed to cigarette smoke. The effect of a senolytic agent on the mice exposed to smoke is assessed by senescent cell clearance, lung function, and histopathology.\nSix week-old 3MR (n=35) or INK-ATTAC (n=35) mice were chronically exposed to cigarette smoke generated from a Teague TE-10 system, an automatically-controlled cigarette smoking machine that produces a combination of side-stream and mainstream cigarette smoke in a chamber, which is transported to a collecting and mixing chamber where varying amounts of air is mixed with the smoke mixture. The COPD protocol was adapted from the COPD core facility at Johns Hopkins University (at Internet site web.jhu.edu/Biswal/exposure_core/copd.html#Cigarette_Smoke) (Rangasamy et al., 2004, J. Clin. Invest. 114:1248-1259; Yao et al., 2012, J. Clin. Invest. 122:2032-2045). Mice received a total of 6 hours of cigarette smoke exposure per day, 5 days a week for 6 months. Each lighted cigarette (3R4F research cigarettes containing 10.9 mg of total particulate matter (TPM), 9.4 mg of tar, and 0.726 mg of nicotine, and 11.9 mg carbon monoxide per cigarette [University of Kentucky, Lexington, KY]) was puffed for 2 seconds and once every minute for a total of 8 puffs, with the flow rate of 1.05 L/min, to provide a standard puff of 35 cm^3. The smoke machine was adjusted to produce a mixture of side stream smoke (89%) and mainstream smoke (11%) by smoldering 2 cigarettes at one time. The smoke chamber atmosphere was monitored for total suspended particulates (80-120 mg/m^3) and carbon monoxide (350 ppm). Beginning at day 7, (10) INK-ATTAC and (10) 3MR mice were treated with AP20187 (3× per week) or gancyclovir (5 consecutive days of treatment followed by 16 days off drug, repeated until the end of the experiment), respectively. An equal number of mice received the corresponding vehicle. The remaining […] (15 INK-ATTAC and 15 3MR) were evenly split with 5 of each genetically modified strain placed into three different treatment groups. One group (n=10) received Nutlin-3A (25 mg/kg dissolved in 10% DMSO/3% Tween-20 in PBS, treated 14 days consecutively followed by 14 days off drug, repeated until the end of the experiment). […]\nAfter two months of cigarette smoke exposure, lung function was assessed by monitoring oxygen saturation using the MouseSTAT PhysioSuite pulse oximeter (Kent Scientific). […] Mice were monitored for 30 seconds and the average peripheral capillary oxygen saturation (SpO2) measurement over this duration was calculated."}, "[10]": {"tested_on": "p16-3MR mice treated with paclitaxel", "assay": "Voluntary exercise (wheel counts) after paclitaxel in p16-3MR mice", "type": "in vivo, mouse", "conditions": "ABT-263 100 mg/kg i.p. daily 7 days; ganciclovir 25 mg/kg i.p. daily 3 days", "procedure": "The capability of a senolytic agent, such as ABT-263, to reduce chemotherapy related side effects, such as fatigue, was examined in p16-3MR transgenic mice. In addition to doxorubicin, paclitaxel also induces cellular senescence when administered to animals. See Example 2 for a description of the p16-3MR transgenic mouse model.\nIn this experiment, paclitaxel was administered to groups of p16-3mr mice (n=4) three times, every two days. Two days after the third dose of paclitaxel, ganciclovir was administered daily for three days (days 1, 2, and 3) intraperitoneally at 25 mg/kg. ABT-263 (100 mg/kg) was administered intraperitoneally daily for seven days after paclitaxel administration. Two days after the last dose of ABT-263, all groups of animals were housed in metabolic cages (promethion, sable systems international, Las Vegas, NV) to monitor voluntary exercise as determined by wheel counts. Data were collected and analyzed two days later. Clearance of senescent cells by ABT-263 and ganciclovir restored approximately 70% of wheel count reduction caused by chemotherapy treatment."}},
  "data": [
    {"compound": "CC1(C)CCC(c2ccc(Cl)cc2)=C(CN2CCN(c3ccc(C(=O)NS(=O)(=O)c4ccc(N[C@H](CCN5CCOCC5)CSc5ccccc5)c(S(=O)(=O)C(F)(F)F)c4)cc3)CC2)C1", "note": "[ABT-263, 4-[4-[[2-(4-chlorophenyl)-5,5-dimethylcyclohexen-1-yl]methyl]piperazin-1-yl]-N-[4-[[(2R)-4-morpholin-4-yl-1-phenylsulfanylbutan-2-yl]amino]-3-(trifluoromethylsulfonyl)phenyl]sulfonylbenzamide]", "values": [
      {"measurement": "Percentage of survival of cells after 24 hours", "setting": "[1]", "value": "absence of toxicity"},
      {"measurement": "IC50", "setting": "[2]", "value": "> 3000", "unit": "nM"},
      {"measurement": "IC50", "setting": "senescent IMR90 cells; Homo sapiens, IMR-90, 72 h, senescent IMR90, 3 days", "value": 140, "unit": "nM"},
      {"measurement": "In vitro theoretical therapeutic index", "setting": "senescent IMR90 cells; IMR90, non-senescent vs senescent IC50", "value": 17},
      {"measurement": "IC50", "setting": "[3]", "value": 410, "unit": "nM"},
      {"measurement": "Cell counts relative to counts before treatment", "setting": "[4]", "value": 28, "unit": "%"},
      {"measurement": "IC50", "setting": "[5]", "value": 2400, "unit": "nM"},
      {"measurement": "Percent of surviving senescent cells in the presence of the pan-caspase inhibitor", "setting": "[6]; 0.33 or 1 μM, 3 days, Q-VD-OPh 20 μM", "value": "increased"},
      {"measurement": "Selective killing of senescent cells", "setting": "[6]; IMR90, 3 days", "value": "selectively kills senescent cells"},
      {"measurement": "IC50", "setting": "[7]", "value": 25, "unit": "nM"},
      {"measurement": "IC50", "setting": "[8]", "value": 430, "unit": "nM"},
      {"measurement": "SpO2 levels", "setting": "[9]", "value": "statistically significant increases"},
      {"measurement": "Restoration of wheel count reduction caused by chemotherapy", "setting": "[10]", "value": "approximately 70%"}
    ]}
  ]
}
